Patent US12673936B2, “Isoindolinone compounds, and uses thereof” (HANGZHOU GLUBIO PHARMACEUTICAL CO., LTD., priority 2021, dated 2026)

Legend:
HiBiT tagged CK1α = HiBiT tagged CK1α (Homo sapiens, UniProt P48729+Q96SW2); experiment: CK1α degradation assay (HiBiT assay); type: cell-based; conditions: 20 hours; for Dmax: HT-1080, HT-1080 cells; for Dmax / HiBiT CK1α: Dmax: maximum CK1α degradation; for DC50 / HiBiT CK1α: Dmax: HT-1080 cells; for DC50: concentration at 50% CK1α degradation
Description: (§1) CK1α and GSPT1 Degradation Assay (HiBiT Assay) The following is an example of an assay that can be used to determine the dose-dependent CK1α and GSPT1 degradation activities of test compounds in a human cell line such as HT-1080 ([…]). HT-1080 cells stably overexpressing wild-type CRBN, GSPT1A(1-138)/G575N mutant and HiBiT tagged CK1α or GSPT1 were seeded into 384-well plates (Cat #3764, Corning) pre-spotted with DMSO or test compounds. Increasing concentrations of test compounds (ranging from 3.162×10^-4 μM to 10 μM at a 3.16-fold increment) or DMSO were dispensed into an empty 384-well plate using an Echo Acoustic Liquid Handler (Beckman Coulter). About 10,000 cells in complete DMEM cell culture media were seeded per well. […] Luminescence was then measured with an EnVision plate reader (PerkinElmer) or a PHERAstar plate reader (BMG Labtech). All CK1α or GSPT1 degradation curves were processed using Collaborative Drug Discovery Vault softwares (Burlingame, CA., www.collaborativedrug.com). CK1α or GSPT1 levels in compound-treated wells were normalized to that of DMSO control and expressed as Percent of Control (PoC, y). […]

HiBiT tagged GSPT1 = HiBiT tagged GSPT1 (Homo sapiens, UniProt P15170+Q96SW2); experiment: GSPT1 degradation assay (HiBiT assay); type: cell-based; conditions: 20 hours, maximum GSPT1 degradation; for Dmax: HT-1080, HT-1080 cells; for HiBiT GSPT1: Dmax: HT-1080 cells
Chain of HiBiT tagged GSPT1 (P15170 whole entry): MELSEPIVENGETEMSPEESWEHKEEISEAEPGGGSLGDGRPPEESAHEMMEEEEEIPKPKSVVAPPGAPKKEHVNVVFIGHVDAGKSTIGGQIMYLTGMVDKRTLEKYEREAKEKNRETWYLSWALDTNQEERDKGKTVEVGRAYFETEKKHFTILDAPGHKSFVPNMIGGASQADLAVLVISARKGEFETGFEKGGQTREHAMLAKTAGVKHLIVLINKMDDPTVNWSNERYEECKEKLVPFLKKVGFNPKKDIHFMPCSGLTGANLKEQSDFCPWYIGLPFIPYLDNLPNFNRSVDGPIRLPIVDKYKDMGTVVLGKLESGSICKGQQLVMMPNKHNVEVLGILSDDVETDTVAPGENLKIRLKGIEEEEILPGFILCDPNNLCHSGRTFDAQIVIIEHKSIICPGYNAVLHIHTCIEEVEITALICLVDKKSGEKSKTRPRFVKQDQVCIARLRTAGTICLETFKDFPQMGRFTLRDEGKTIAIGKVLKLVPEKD
Chain of HiBiT tagged GSPT1 (Q96SW2 whole entry): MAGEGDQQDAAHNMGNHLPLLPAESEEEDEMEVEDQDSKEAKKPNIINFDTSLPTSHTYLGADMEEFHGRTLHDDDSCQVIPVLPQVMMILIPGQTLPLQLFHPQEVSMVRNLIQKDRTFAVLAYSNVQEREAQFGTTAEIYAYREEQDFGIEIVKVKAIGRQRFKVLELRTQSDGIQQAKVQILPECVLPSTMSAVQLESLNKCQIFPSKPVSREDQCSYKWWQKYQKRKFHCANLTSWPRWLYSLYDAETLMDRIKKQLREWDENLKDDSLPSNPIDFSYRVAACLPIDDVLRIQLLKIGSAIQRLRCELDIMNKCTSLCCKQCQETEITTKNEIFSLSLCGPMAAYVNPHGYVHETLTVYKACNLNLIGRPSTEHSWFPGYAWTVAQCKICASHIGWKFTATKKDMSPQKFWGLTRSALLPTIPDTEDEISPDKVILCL
Chain of HiBiT tagged GSPT1 (Q16531 whole entry partner): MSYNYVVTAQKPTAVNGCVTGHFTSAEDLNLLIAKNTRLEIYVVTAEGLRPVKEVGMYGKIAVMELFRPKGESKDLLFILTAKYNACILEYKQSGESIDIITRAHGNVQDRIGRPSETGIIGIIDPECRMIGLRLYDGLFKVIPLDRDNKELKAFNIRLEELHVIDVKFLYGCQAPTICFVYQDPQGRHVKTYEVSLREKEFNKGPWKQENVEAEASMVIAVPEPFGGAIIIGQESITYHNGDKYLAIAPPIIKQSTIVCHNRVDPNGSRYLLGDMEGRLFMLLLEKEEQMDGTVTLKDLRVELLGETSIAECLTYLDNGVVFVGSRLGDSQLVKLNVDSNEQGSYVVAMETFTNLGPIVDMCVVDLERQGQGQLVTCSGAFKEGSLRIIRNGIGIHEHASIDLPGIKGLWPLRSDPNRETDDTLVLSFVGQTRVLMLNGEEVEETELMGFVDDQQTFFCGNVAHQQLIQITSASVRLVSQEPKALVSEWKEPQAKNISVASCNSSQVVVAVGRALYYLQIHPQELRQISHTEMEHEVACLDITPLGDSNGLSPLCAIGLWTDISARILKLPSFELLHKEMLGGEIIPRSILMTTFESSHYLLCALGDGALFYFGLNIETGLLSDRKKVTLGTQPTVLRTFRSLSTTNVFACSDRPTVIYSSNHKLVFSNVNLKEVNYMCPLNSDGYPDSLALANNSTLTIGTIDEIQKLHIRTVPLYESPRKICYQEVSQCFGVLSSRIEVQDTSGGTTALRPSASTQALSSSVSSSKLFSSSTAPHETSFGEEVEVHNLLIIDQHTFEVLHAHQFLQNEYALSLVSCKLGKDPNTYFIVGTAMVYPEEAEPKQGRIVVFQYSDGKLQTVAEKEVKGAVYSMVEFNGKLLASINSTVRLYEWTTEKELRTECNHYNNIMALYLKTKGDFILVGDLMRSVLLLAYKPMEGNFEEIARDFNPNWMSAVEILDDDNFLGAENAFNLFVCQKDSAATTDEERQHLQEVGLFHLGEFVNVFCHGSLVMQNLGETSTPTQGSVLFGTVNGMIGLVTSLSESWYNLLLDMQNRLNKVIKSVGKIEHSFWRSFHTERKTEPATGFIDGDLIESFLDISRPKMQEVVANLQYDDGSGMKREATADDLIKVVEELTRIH
Description: as §1

Chain of HiBiT tagged CK1α (P48729 whole entry): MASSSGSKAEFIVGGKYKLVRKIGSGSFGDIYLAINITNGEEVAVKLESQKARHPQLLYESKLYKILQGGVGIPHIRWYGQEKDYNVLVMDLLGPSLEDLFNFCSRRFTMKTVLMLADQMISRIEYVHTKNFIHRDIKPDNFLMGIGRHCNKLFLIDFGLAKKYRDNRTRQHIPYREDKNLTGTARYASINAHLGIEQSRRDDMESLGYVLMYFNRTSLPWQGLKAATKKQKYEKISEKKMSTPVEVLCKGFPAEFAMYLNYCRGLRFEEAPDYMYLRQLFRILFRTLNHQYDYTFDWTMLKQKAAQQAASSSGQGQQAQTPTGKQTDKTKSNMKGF
Chain of HiBiT tagged CK1α (Q96SW2 whole entry): as the sequence (Q96SW2 whole entry) above
Chain of HiBiT tagged CK1α (Q16531 whole entry partner): as the sequence (Q16531 whole entry partner) above

| Structure (SMILES) | Dmax (HiBiT tagged CK1α) [%] | DC50 (HiBiT tagged CK1α) [nM] | Dmax (HiBiT tagged GSPT1) [%] | HiBiT CK1α: Dmax (HiBiT tagged CK1α) [%] | HiBiT GSPT1: Dmax (HiBiT tagged GSPT1) [%] |
| --- | --- | --- | --- | --- | --- |
| O=C1CCC(N2Cc3cc(C(=O)N[C@H](c4ccc(F)cc4Cl)C4CCC4)ccc3C2=O)C(=O)N1 (stereo in doubt) [Compound 73, N-((*S)-(2-chloro-4-fluorophenyl)(cyclobutyl)methyl)-2-(2,6-dioxopiperidin-3-yl)-1-oxoisoindoline-5-carboxamide] | 71.4 | 73.5 | 30.4 | – | – |
| O=C1CCC(N2Cc3cc(C(=O)N[C@@H](c4ccc(Cl)cn4)C4CCC4)ccc3C2=O)C(=O)N1 (stereo in doubt) [Compound 77, N—((*R)-(5-chloropyridin-2-yl)(cyclobutyl)methyl)-2-(2,6-dioxopiperidin-3-yl)-1-oxoisoindoline-5-carboxamide] | – | – | – | 41.1 | 23.5 |
| O=C1CCC(N2Cc3cc(C(=O)N[C@@H](c4cccc(Cl)c4)C4CCC4)ccc3C2=O)C(=O)N1 (stereo in doubt) [Compound 68, N-((3-chlorophenyl)(cyclobutyl)methyl)-2-(2,6-dioxopiperidin-3-yl)-1-oxoisoindoline-5-carboxamide] | 55.4 | 789 | 48.3 | – | – |
| O=C1CCC(N2Cc3cc(C(=O)N[C@H](c4ccc(F)cc4)C4CCCC4)ccc3C2=O)C(=O)N1 (mixture of isomers) [Compound 61, N-((*S)-cyclopentyl(4-fluorophenyl)methyl)-2-((R)-2,6-dioxopiperidin-3-yl)-1-oxoisoindoline-5-carboxamide] | 49.5 | – | 29.3 | – | – |
| CN1CCN(c2ccc([C@@H](NC(=O)c3ccc4c(c3)CN(C3CCC(=O)NC3=O)C4=O)C3CCC3)cc2)CC1 (stereo in doubt) [Compound 21, N-((*S)-cyclobutyl(4-(4-methylpiperazin-1-yl)phenyl)methyl)-2-(2,6-dioxopiperidin-3-yl)-1-oxoisoindoline-5-carboxamide] | 60.6 | 132 | 20.6 | – | – |
| O=C1CC[C@H](N2Cc3cc(C(=O)N[C@H](c4ccc(F)c(F)c4)C4CCC4)ccc3C2=O)C(=O)N1 (racemic) [Compound 48, N-((*S)-cyclobutyl(3,4-difluorophenyl)methyl)-2-((S)-2,6-dioxopiperidin-3-yl)-1-oxoisoindoline-5-carboxamide] | – | 130 | – | 66.2 | 26.2 |

Second part, the molecule after the results:

| Dmax (HiBiT tagged CK1α) [%] | DC50 (HiBiT tagged CK1α) [nM] | Dmax (HiBiT tagged GSPT1) [%] | HiBiT CK1α: Dmax (HiBiT tagged CK1α) [%] | HiBiT GSPT1: Dmax (HiBiT tagged GSPT1) [%] | Structure (SMILES) |
| --- | --- | --- | --- | --- | --- |
| 59.2 | 233 | 62.3 | – | – | O=C1CCC(N2Cc3cc(C(=O)N[C@@H](c4ccc(F)cc4Cl)C4CC4)ccc3C2=O)C(=O)N1 (stereo in doubt) [Compound 74, N-((*R)-(2-chloro-4-fluorophenyl)(cyclopropyl)methyl)-2-(2,6-dioxopiperidin-3-yl)-1-oxoisoindoline-5-carboxamide] |
| 76.4 | 40 | 31.7 | – | – | O=C1CCC(N2Cc3cc(C(=O)N[C@H](c4c(F)cccc4F)C4CCC4)ccc3C2=O)C(=O)N1 (stereo in doubt) [Compound 67, N-((*S)-cyclobutyl(2,6-difluorophenyl)methyl)-2-(2,6-dioxopiperidin-3-yl)-1-oxoisoindoline-5-carboxamide] |
| 64.7 | 308 | 23.4 | – | – | O=C1CCC(N2Cc3cc(C(=O)N[C@H](c4ccccc4F)C4CC4)ccc3C2=O)C(=O)N1 (stereo in doubt) [Compound 11, N-((*S)-cyclopropyl(2-fluorophenyl)methyl)-2-(2,6-dioxopiperidin-3-yl)-1-oxoisoindoline-5-carboxamide] |
| – | 93.7 | – | 63.6 | 15.3 | O=C1CC[C@@H](N2Cc3cc(C(=O)N[C@H](c4ccc(Cl)cc4F)C4CCC4)ccc3C2=O)C(=O)N1 (racemic) [Compound 56, N-((*S)-(4-chloro-2-fluorophenyl)(cyclobutyl)methyl)-2-((*R)-2,6-dioxopiperidin-3-yl)-1-oxoisoindoline-5-carboxamide] |
